# Laboratory results as given in patent US11331272B2, “Hyperstabilized liposomes increase targeting of mitotic cells” (TEMASEK LIFE SCIENCES LABORATORY LIMITED, priority 2017, dated 2022).
# Assays:
# [1] = Toxicity / body weight in HCT116 xenografted mice; details: NCr Nude, mouse, in vivo, intravenous, tail vein injection, read-out: maximum tolerated dose
# Method: (§1) Free BI 2536 (dissolved in 0.1 N HCl, saline) or the indicated liposomal BI 2536 formulations were administered by slow tail vein injection 7 days post grafting with HCT116. Tumor volumes were at least 150 mm^3 and calculated using length×width^2×0.5. All measurements were performed using vernier calipers and mice were weighed every other day. Mice were subcutaneously hydrated with 1 ml Hartmann's solution daily for 5 days post treatment to ensure that the mice were fully hydrated.
# [2] = Hexanol extraction of BI 2536 from salt solutions; assay type: physicochemical; details: pH 3
# Method: BI 2536 was first dissolved in ethanol and then coated onto 1.5 ml microfuge tubes by spin drying. BI 2636-coated tubes were then further dried overnight under high vacuum before resuspending in the indicated salt solutions to achieve a final concentration of 500 μM. To ensure complete dissolution of coated BI2536, tubes were briefly vortexed and subjected to bath sonication for 1 minute before being used for characterization.
# BI 2536 from 1 ml of the indicated buffer was extracted with 100 μl 1-hexanol (Merck) by brief shaking for 1 hour. Hexanol and buffer layers were separated by brief centrifugation and 20 ul of the hexanol layer was analyzed for fluorescence intensity using the Tecan plate reader (Ex: 330 nm, Em: 370 nm).
# HCT116 xenografts = assay: Efficacy study in HCT116 xenografted mice (tumor volume, complete responses, survival); assay type: in vivo, NCr Nude mice; details: free 100 mg/kg, responders/treated mice
# Method: All animal experiments were approved by the Institutional Animal Care and Use Committee of Temasek Life Sciences Laboratory and National University of Singapore (NUS). Female NCr Nude mice (Ages 5-8 weeks) were purchased from (Singapore/InVivos) and subcutaneously xenografted with HCT116 cells. HCT116 cells were grown as described above in 600 cm^2 dishes (Corning) and each dish was used to graft 5 mice when confluence reached ˜80%.
# as §1
compound,measurement,setting,value
"CC[C@@H]1C(=O)N(C)c2cnc(Nc3ccc(C(=O)NC4CCN(C)CC4)cc3OC)nc2N1C1CCCC1 [Free Drug, BI 2536]",MTD,[1],100 mg/kg
same,hexanol-extraction efficiency as anion concentration rises,"[2]; anions M, C, H",decreased
same,hexanol-extraction efficiency as anion concentration rises,"[2]; anions P, A",increased
same,"Complete Responses, Double Dose","HCT116 xenografts; doses at days 0 and 7, liposomal 340 mg/kg",0/8
same,"Complete Responses, Single Dose","HCT116 xenografts; single dose at day 0, liposomal 340 mg/kg",0/10
